Laboratory results: patent publication US10633429B2, “Human antibody κ type light chain complex-containing composition and method for producing same” (JAPAN SCIENCE AND TECHNOLOGY AGENCY, priority 2013, dated 2020)

Assays:
Format in all cases: cell-based
[1] = test system: PANC-1 cell line (human pancreatic cancer cell line); test: Cytotoxicity assay (WST assay), PANC-1 cell line; settings: Example 2, Fr. 3B set to 100%
Experimental: (§1) The cytotoxicity of each complex-containing composition to cancer cells was tested using cancer cell lines. As the cancer cell lines, A549 cell line (human alveolar epithelial cancer cell line), ES-2 cell line (human ovarian cancer cell line), MOLT-4 cell line (human acute lymphoblastic leukemia T cell line), BxPC-3 cell line (human pancreatic adenocarcinoma cell line), SNU-1 cell line (human metastatic gastric cancer cell line), and PANC-1 cell line (human pancreatic cancer cell line) were used.
(§2) All of these cell lines were purchased from ATCC (American Type Culture Collection). Here, the A549 cell line was cultured using a 10% FCS (fetal calf serum)-containing F-12K culture medium by a general method, the ES-2 cell line was cultured using a 10% FCS-containing McCoy's 5A culture medium by a general method, each of the MOLT-4 cell line, SNU-1 cell line, and BxPC-3 cell line was cultured using a 10% FCS-containing RPMI-1640 culture medium by a general method, the PANC-1 cell line was cultured using a 10% FCS-containing DMEM culture medium by a general method, and the WI-38 cell line was cultured using a 10% FCS-containing EMEM culture medium by a general method.
(§3) First, after being recovered by thawing the frozen cancer cell lines, the recovered cancer cell lines were seeded in a 96-well plate by 100 μL to be 5×10^3 cells/well (the number of seeds was appropriately adjusted by cell species). […] After culturing was carried out for 24 hours or 48 hours from the addition of the complex-containing composition (after cells are planted and cultivated for 48 hours or 72 hours), a WST-1 reagent (manufactured by Roche Inc.) was added to each well by 10 μL and incubated for 1, 1.5, and 2 hours to form a formazan dye, and then the absorbance (Abs at 450 nm) of the formazan dye was measured (WST assay). As a control, a human antibody κ type light chain not bound to metal ions or PBS was added instead of the complex-containing composition and cultured for 24 hours or 48 hours, and then WST assay was carried out. Based on the results of the obtained absorbance, the cell survival rate of the well added with the human antibody κ type light chain not bound to metal ions or the well added with the PBS was set to 100%, and the cell survival rate of each well was determined, so as to evaluate the cytotoxicity of the added complex-containing composition.

[2] = test system: SNU-1 cell line (human metastatic gastric cancer cell line); test: Cytotoxicity assay (WST assay), SNU-1 cell line
Experimental: as §1, §2
First, after being recovered by thawing the frozen cancer cell lines, the recovered cancer cell lines were seeded in a 96-well plate by 100 μL to be 5×10^3 cells/well (the number of seeds was appropriately adjusted by cell species). After culturing was carried out at 37° C. for 24 hours, a culture medium to be added to the 96-well plate was removed by decantation, and then each complex-containing composition prepared at a concentration of about 1 mg/mL was added to each well by 100 μL. After culturing was carried out for 24 hours or 48 hours from the addition of the complex-containing composition (after cells are planted and cultivated for 48 hours or 72 hours), a WST-1 reagent (manufactured by Roche Inc.) was added to each well by 10 μL and incubated for 1, 1.5, and 2 hours to form a formazan dye, and then the absorbance (Abs at 450 nm) of the formazan dye was measured (WST assay). As a control, a human antibody κ type light chain not bound to metal ions or PBS was added instead of the complex-containing composition and cultured for 24 hours or 48 hours, and then WST assay was carried out. Based on the results of the obtained absorbance, the cell survival rate of the well added with the human antibody κ type light chain not bound to metal ions or the well added with the PBS was set to 100%, and the cell survival rate of each well was determined, so as to evaluate the cytotoxicity of the added complex-containing composition.

[3] = test system: A549 cell line (human alveolar epithelial cancer cell line); test: Cytotoxicity assay (WST assay), A549 cell line; settings: Example 5; C51 incubated with metal ions 4 μM or cisplatin 4 μM; 24 hours; PBS set to 100%
Experimental: as §1
(§4) All of these cell lines were purchased from ATCC (American Type Culture Collection). […]
First, after being recovered by thawing the frozen cancer cell lines, the recovered cancer cell lines were seeded in a 96-well plate by 100 μL to be 5×10^3 cells/well (the number of seeds was appropriately adjusted by cell species). […] After culturing was carried out for 24 hours or 48 hours from the addition of the complex-containing composition (after cells are planted and cultivated for 48 hours or 72 hours), a WST-1 reagent (manufactured by Roche Inc.) was added to each well by 10 μL and incubated for 1, 1.5, and 2 hours to form a formazan dye, and then the absorbance (Abs at 450 nm) of the formazan dye was measured (WST assay). […]

[4] = test system: WI-38 cell line (human fetal lung fibroblast cell line); test: Cytotoxicity assay (WST assay), WI-38 control cell line; settings: Example 5; cisplatin 4.2 μM; 24 hours; PBS set to 100%
Experimental: In addition, as a control, WI-38 cell line (human fetal lung fibroblast cell line) was also used.
as §4
as §3, with “As a control, a human antibody κ type light chain not bound to metal ions or PBS was added instead of the complex-containing composition and cultured for 24 hours or 48 hours, and then WST assay was carried out.” left out

[5] = #7_wt fractions 4 μM (100 μg/mL) or cisplatin 4 μM
[6] = Example 2, #7_wt fractions 4 μM (100 μg/mL) or cisplatin 4 μM, Fr. 3B set to 100%
[7] = Example 2, cisplatin 33 μM, Fr. 3B set to 100%

For `N.N.[Cl][Pt][Cl]` [Cisplatin, cisplatin], the “Relative cell survival rate, PANC-1 cell line, 24 h” value [1, 5] was 109.3%, the “Relative cell survival rate, PANC-1 cell line, 48 h” value [1, 5] was 82.1% and the “Relative cell survival rate, PANC-1 cell line, 24 h” value ([1]; cisplatin 33 μM) was 60.3%. The “Relative cell survival rate, PANC-1 cell line, 48 h” value ([1]; cisplatin 33 μM) was 9.6%, the “Relative cell survival rate, SNU-1 cell line, 24 h” value [2, 6] was 85.0% and the “Relative cell survival rate, SNU-1 cell line, 48 h” value [2, 6] was 32.5%. For the same compound, the “Relative cell survival rate, SNU-1 cell line, 24 h” value [2, 7] was 32.0%, the “Relative cell survival rate, SNU-1 cell line, 48 h” value [2, 7] was 5.8% and the “Relative cell survival rate, SNU-1 cell line, 24 h” value ([2]; Example 3, cisplatin 4 μM, Fr. 3B (#7_C219A) set to 100%) was 89.5%. For the same compound, the “Relative cell survival rate” value [3] was “about 60%” and the “Relative cell survival rate” value [4] was 40%.
